For 16 molecules, pest or weed control, inhibition of growth and melting point results are on record in patent US20190364899A1, “MICROBIOCIDAL OXADIAZOLE DERIVATIVES” (SYNGENTA PARTICIPATIONS AG, priority 2015, published 2019).

Series [1] concerns Puccinia recondita f, Sp. Tritici. As to the kind of experiment: Fungicidal activity against Puccinia recondita f. sp. tritici / wheat / leaf disc preventative (brown rust). The following applies: foliar, 200 ppm in the applied formulation, wheat leaf segments cv. Kanzler, inoculated 1 day after application, compared to untreated, read-out: disease control. In kind it is in vivo. Here is the method: (§1) General examples of leaf disk tests in well plates: Leaf disks or leaf segments of various plant species are cut from plants grown in a greenhouse. The cut leaf disks or segments are placed in multiwell plates (24-well format) onto water agar. The leaf disks are sprayed with a test solution before (preventative) or after (curative) inoculation. Compounds to be tested are prepared as DMSO solutions (max. 10 mg/ml) which are diluted to the appropriate concentration with 0.025% Tween20 just before spraying. The inoculated leaf disks or segments are incubated under defined conditions (temperature, relative humidity, light, etc.) according to the respective test system. A single evaluation of disease level is carried out 3 to 14 days after inoculation, depending on the pathosystem. Percent disease control relative to the untreated check leaf disks or segments is then calculated. General examples of liquid culture tests in well plates: Mycelia fragments or conidia suspensions of a fungus prepared either freshly from liquid cultures of the fungus or from cryogenic storage, are directly mixed into nutrient broth. DMSO solutions of the test compound (max. 10 mg/ml) are diluted with 0.025% Tween20 by a factor of 50 and 10 μl of this solution is pipetted into a microtiter plate (96-well format). The nutrient broth containing the fungal spores/mycelia fragments is then added to give an end concentration of the tested compound. The test plates are incubated in the dark at 24° C. and 96% relative humidity. The inhibition of fungal growth is determined photometrically after 2 to 7 days, depending on the pathosystem, and percent antifungal activity relative to the untreated check is calculated.
Example 1: Fungicidal Activity Against Puccinia recondita f, Sp. Tritici/Wheat/Leaf Disc Preventative (Brown Rust)
Wheat leaf segments cv. Kanzler were placed on agar in multiwell plates (24-well format) and sprayed with the formulated test compound diluted in water. The leaf disks were inoculated with a spore suspension of the fungus 1 day after application. The inoculated leaf segments were incubated at 19° C. and 75% relative humidity (rh) under a light regime of 12 hours light/12 hours darkness in a climate cabinet and the activity of a compound was assessed as percent disease control compared to untreated when an appropriate level of disease damage appears in untreated check leaf segments (7 to 9 days after application).
(§2) The following compounds at 200 ppm in the applied formulation give at least 80% disease control in this test when compared to untreated control leaf disks under the same conditions, which show extensive disease development.

Series [2] concerns Puccinia Recondite f. Sp. Tritici. The experiment in a line: Fungicidal activity against Puccinia recondita f. sp. tritici / wheat / leaf disc curative (brown rust). In kind it is in vivo. The note with it: foliar, 24 h, 200 ppm in the applied formulation, wheat leaf segments cv. Kanzler, applied 1 day after inoculation, compared to untreated, read-out: disease control. The procedure: as §1
Example 2: Fungicidal Activity Against Puccinia Recondite f. Sp. Tritici Wheat/Leaf Disc Curative (Brown Rust)
Wheat leaf segments cv. Kanzler are placed on agar in multiwell plates (24-well format). The leaf segments are then inoculated with a spore suspension of the fungus. Plates were stored in darkness at 19° C. and 75% relative humidity. The formulated test compound diluted in water was applied 1 day after inoculation. The leaf segments were incubated at 19° C. and 75% relative humidity under a light regime of 12 hours light/12 hours darkness in a climate cabinet and the activity of a compound was assessed as percent disease control compared to untreated when an appropriate level of disease damage appears in untreated check leaf segments (6 to 8 days after application).
as §2

In another series the test system is Phakopsora pachyrhizi. As to the kind of experiment: Fungicidal activity against Phakopsora pachyrhizi / soybean / leaf disc preventative (Asian soybean rust). In kind it is in vivo. The note with it: foliar, 200 ppm in the applied formulation, soybean leaf disks, inoculated one day after application, compared to untreated, read-out: disease control. The procedure: as §1
Example 3: Fungicidal Activity Against Phakopsora pachyrhizi/Soybean/Leaf Disc Preventative (Asian Soybean Rust)
Soybean leaf disks are placed on water agar in multiwell plates (24-well format) and sprayed with the formulated test compound diluted in water. One day after application leaf discs are inoculated by spraying a spore suspension on the lower leaf surface. After an incubation period in a climate cabinet of 24-36 hours in darkness at 20° C. and 75% rh leaf disc are kept at 20° C. with 12 h light/day and 75% rh. The activity of a compound is assessed as percent disease control compared to untreated when an appropriate level of disease damage appears in untreated check leaf disks (12 to 14 days after application).
as §2

For series [3], the system named is Glomerella Lagenarium (Colletotrichum Lagenarium). The experiment in a line: Fungicidal activity against Glomerella lagenarium (Colletotrichum lagenarium) liquid culture / cucumber / preventative (anthracnose). In kind it is cell-based. The note with it: Colletotrichum orbiculare; 20 ppm in the applied formulation; liquid culture in PDB, growth inhibition measured photometrically 3 to 4 days after application; compared to untreated; read-out: disease control. Here is the method: as §1
Example 4: Fungicidal Activity Against Glomerella Lagenarium (Colletotrichum Lagenarium) Liquid Culture/Cucumber/Preventative (Anthracnose)
Conidia of the fungus from cryogenic storage are directly mixed into nutrient broth (PDB—potato dextrose broth). After placing a (DMSO) solution of test compound into a microtiter plate (96-well format), the nutrient broth containing the fungal spores is added. The test plates are incubated at 24° C. and the inhibition of growth is measured photometrically 3 to 4 days after application.
The following compounds at 20 ppm in the applied formulation give at least 80% disease control in this test when compared to untreated control under the same conditions, which show extensive disease development.

On to `O=C(NCc1ccc(-c2noc(C(F)(F)F)n2)cc1)NC1CC1` [Compound 2.3, 1-cyclopropyl-3-[[4-[5-(trifluoromethyl)-1,2,4-oxadiazol-3-yl]phenyl]methyl]urea], for which the melting point (as a rule, the temperature, or range, at which the solid turns liquid) lay in the range of 176 to 180.1 °C. Moreover, the pest or weed control at 200 ppm in series [1] was at least 80%. Besides, the pest or weed control at 200 ppm in series [2] is at least 80%. The pest or weed control at 200 ppm in the series with Phakopsora pachyrhizi is at least 80%. Moreover, the inhibition of growth at 20 ppm in series [3] was at least 80%.

The molecule `O=C(NCc1ccc(-c2noc(C(F)(F)F)n2)cc1F)NCC1CC1` [Compound 2.2, 1-(cyclopropylmethyl)-3-[[2-fluoro-4-[5-(trifluoromethyl)-1,2,4-oxadiazol-3-yl]phenyl]methyl]urea] yielded a melting point of 157 to 160 °C. The pest or weed control at 200 ppm in the series on Phakopsora pachyrhizi is at least 80%. Besides, in series [3], the inhibition of growth at 20 ppm is at least 80%.

Regarding `C#CCN(C(=O)NCc1ccc(-c2noc(C(F)(F)F)n2)cc1)C1CC1` [Compound 2.30, 1-cyclopropyl-1-prop-2-ynyl-3-[[4-[5-(trifluoromethyl)-1,2,4-oxadiazol-3-yl]phenyl]methyl]urea], the pest or weed control at 200 ppm (in series [1]; in series [2]; with Phakopsora pachyrhizi) was at least 80% throughout. Also, the inhibition of growth at 20 ppm in series [3] is at least 80%.

`O=C(NCc1ccc(-c2noc(C(F)(F)F)n2)c(F)c1)NC1CC1` [Compound 2.20, 1-cyclopropyl-3-[[3-fluoro-4-[5-(trifluoromethyl)-1,2,4-oxadiazol-3-yl]phenyl]methyl]urea]: the melting point lay within 169 to 173 °C. Further, the pest or weed control at 200 ppm in series [1] is at least 80%. Also, in series [2], the pest or weed control at 200 ppm was at least 80%. In addition, the pest or weed control at 200 ppm in the series on Phakopsora pachyrhizi is at least 80%. Moreover, in series [3], the inhibition of growth at 20 ppm is at least 80%.

With `COCC1(N(C)C(=O)NCc2ccc(-c3noc(C(F)(F)F)n3)cc2)CC1` [Compound 2.28, 1-[1-(methoxymethyl)cyclopropyl]-1-methyl-3-[[4-[5-(trifluoromethyl)-1,2,4-oxadiazol-3-yl]phenyl]methyl]urea], the pest or weed control at 200 ppm (in series [1]; in series [2]; in the series with Phakopsora pachyrhizi) was at least 80% throughout. Also, the inhibition of growth at 20 ppm in series [3] was at least 80%.

Take `O=C(NCc1ccc(-c2noc(C(F)(F)F)n2)cc1)OCC1CC1` [Compound 1.3, cyclopropylmethyl N-[[4-[5-(trifluoromethyl)-1,2,4-oxadiazol-3-yl]phenyl]methyl] carbamate]: the melting point was 108.2 to 109.8 °C. For the same molecule, the pest or weed control at 200 ppm in series [1] was at least 80%. In series [2], the pest or weed control at 200 ppm was at least 80%. In addition, in the series with Phakopsora pachyrhizi, the pest or weed control at 200 ppm is at least 80%. Also, the inhibition of growth at 20 ppm in series [3] is at least 80%.

As for `O=C(NCc1ccc(-c2noc(C(F)(F)F)n2)cc1)N1CCCO1` [Compound 3.5, N-[[4-[5-(trifluoromethyl)-l,2,4-oxadiazol-3-yl]phenyl]methyl] isoxazolidine-2-carboxamide], the pest or weed control at 200 ppm (in series [1]; in series [2]; with Phakopsora pachyrhizi) was at least 80% each time. Further, the inhibition of growth at 20 ppm in series [3] is at least 80%.

As to `O=C(NCCc1ccc(-c2noc(C(F)(F)F)n2)cc1)NC1CC1` [Compound 2.32, 1-cyclopropyl-3-[2-[4-[5-(trifluoromethyl)-1,2,4-oxadiazol-3-yl]phenyl]ethyl]urea], the melting point lay within 147 to 159 °C.

For `CCN(C(=O)NCc1ccc(-c2noc(C(F)(F)F)n2)cc1)C1CC1` [Compound 2.27, 1-cyclopropyl-1-ethyl-3-[[4-[5-(trifluoromethyl)-1,2,4-oxadiazol-3-yl]phenyl]methyl]urea], the pest or weed control at 200 ppm (in series [1]; in series [2]; in the series on Phakopsora pachyrhizi) was at least 80% throughout. Also, the inhibition of growth at 20 ppm in series [3] is at least 80%.

For the molecule `O=C(NCc1ccc(-c2noc(C(F)(F)F)n2)cn1)Nc1cccc(F)c1` [Compound 2.17, 1-(3-fluorophenyl)-3-[[5-[5-(trifluoromethyl)-1,2,4-oxadiazol-3-yl]-2-pyridyl]methyl]urea], the pest or weed control at 200 ppm (in series [1]; in series [2]; in the series on Phakopsora pachyrhizi) was at least 80% throughout. The inhibition of growth at 20 ppm in series [3] is at least 80%.

With `O=C(NCc1ccc(-c2noc(C(F)(F)F)n2)c(F)c1)Nc1ccccc1Cl` [Compound 2.21, 1-(2-chlorophenyl)-3-[[3-fluoro-4-[5-(trifluoromethyl)-1,2,4-oxadiazol-3-yl]phenyl]methyl]urea], the melting point lay within 173 to 178 °C. The pest or weed control at 200 ppm in series [1] is at least 80%.

As for `O=C(NCc1ccc(-c2noc(C(F)(F)F)n2)cc1)N1CCCC1` [Compound 3.4, N-[[4-[5-(trifluoromethyl)-l,2,4-oxadiazol-3-yl]phenyl]methyl] pyrrolidine-1-carboxamide], the pest or weed control at 200 ppm (in series [1]; in series [2]; in the series on Phakopsora pachyrhizi) was at least 80% throughout. Besides, the inhibition of growth at 20 ppm in series [3] was at least 80%.

For the molecule `O=C(NCc1ccc(-c2noc(C(F)(F)F)n2)c(F)c1)N1CCOCC1` [Compound 3.3, N-[[3-fluoro-4-[5-(trifluoromethyl)-l,2,4-oxadiazol-3-yl]phenyl]methyl] morpholine-4-carboxamide], the melting point fell in the range of 82 to 94 °C. Further, in series [1], the pest or weed control at 200 ppm is at least 80%. Moreover, the pest or weed control at 200 ppm in series [2] is at least 80%. Besides, in series [3], the inhibition of growth at 20 ppm is at least 80%.

Consider `CN(C(=O)NCc1ccc(-c2noc(C(F)(F)F)n2)cc1)C1CC1` [Compound 2.22, 1-cyclopropyl-1-methyl-3-[[4-[5-(trifluoromethyl)-1,2,4-oxadiazol-3-yl]phenyl]methyl]urea], for which the pest or weed control at 200 ppm (in series [1]; in series [2]; in the series with Phakopsora pachyrhizi) was at least 80% in each case. The inhibition of growth at 20 ppm in series [3] was at least 80%.

Take `CN(C(=O)NCc1ccc(-c2noc(C(F)(F)F)n2)cc1)C1CCC1` [Compound 2.26, 1-cyclobutyl-1-methyl-3-[[4-[5-(trifluoromethyl)-1,2,4-oxadiazol-3-yl]phenyl]methyl]urea]: the pest or weed control at 200 ppm (in series [1]; in series [2]; in the series on Phakopsora pachyrhizi) was at least 80% in each case. In series [3], the inhibition of growth at 20 ppm was at least 80%.

Molecule `O=C(NCc1ccc(-c2noc(C(F)(F)F)n2)cc1)NCC1CC1` [Compound 2.1, 1-(cyclopropylmethyl)-3-[[4-[5-(trifluoromethyl)-1,2,4-oxadiazol-3-yl]phenyl]methyl]urea] had a melting point of 158.8 to 165 °C. For the same molecule, the pest or weed control at 200 ppm in series [1] was at least 80%. In addition, in the series with Phakopsora pachyrhizi, the pest or weed control at 200 ppm is at least 80%. Also, the inhibition of growth at 20 ppm in series [3] is at least 80%.
